In paper PMC6979384, “Characterization of the plant homeodomain (PHD) reader family for their histone tail interactions” (Epigenetics & Chromatin, 2020):

Experiments:
Test in all cases: Histone peptide microarray
Format in all cases: binding, human
CHD5 (PCC) = conditions: GST-tagged CHD5 (PCC = PHD + Dual Chromodomain); sheet Array Heatmap; each array performed twice, total n = 4
Procedure, shortened: (§1)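 GST-tagged PHD readers, 0.5 μM, probed on a microarray of 293 synthetic histone peptides carrying single or combinatorial PTMs (optimized Petell protocol). Signals are averaged over 4 replicates and expressed as relative binding.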

KDM4C (TTP) = conditions: GST-tagged KDM4C (TTP = Tandem Tudor domain + PHD); sheet Array Heatmap; each array performed twice, total n = 4
Procedure, shortened: as §1

PHF21A = conditions: GST-tagged PHF21A; sheet Array Heatmap; each array performed twice, total n = 4
Procedure, shortened: as §1

ING1 = conditions: GST-tagged ING1; sheet Array Heatmap; each array performed twice, total n = 4
Procedure, shortened: as §1

MORC3 (CW) = conditions: GST-tagged MORC3 (CW = CW-type Zn-finger); sheet Array Heatmap; each array performed twice, total n = 4
Procedure, shortened: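 A peptide microarray holding 293 synthetic histone peptides with individual or combinatorial modifications was probed with each GST-PHD protein at 0.5 μM. Values represent mean intensity (±SD) from four replicates.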

TRIM66 (PB) = conditions: GST-tagged TRIM66 (PB = PHD + Bromodomain); sheet Array Heatmap; each array performed twice, total n = 4
Procedure, shortened: as §1

ING5 = conditions: GST-tagged ING5; sheet Array Heatmap; each array performed twice, total n = 4
Procedure, shortened: as §1

PHF2 = conditions: GST-tagged PHF2; sheet Array Heatmap; each array performed twice, total n = 4
Procedure, shortened: as §1

CHD4 (PPCC) = conditions: GST-tagged CHD4 (PPCC = Dual PHD + Dual Chromodomain); sheet Array Heatmap; each array performed twice, total n = 4
Procedure, shortened: as §1

PHF8 = conditions: GST-tagged PHF8; sheet Array Heatmap; each array performed twice, total n = 4
Procedure, shortened: as §1

TAF3 = conditions: GST-tagged TAF3; sheet Array Heatmap; each array performed twice, total n = 4
Procedure, shortened: as §1

AIRE (PP) = conditions: GST-tagged AIRE (PP); sheet Array Heatmap; each array performed twice, total n = 4
Procedure, shortened: as §1

KDM5A (3) = conditions: GST-tagged KDM5A (3); sheet Array Heatmap; each array performed twice, total n = 4
Procedure, shortened: as §1

KDM7A = conditions: GST-tagged KDM7A; sheet Array Heatmap; each array performed twice, total n = 4
Procedure, shortened: as §1

BPTF (PB) = conditions: GST-tagged BPTF (PB = PHD + Bromodomain); sheet Array Heatmap; each array performed twice, total n = 4
Procedure, shortened: as §1

PHF23 = conditions: GST-tagged PHF23; sheet Array Heatmap; each array performed twice, total n = 4
Procedure, shortened: as §1

CHD5 (PPCC) = conditions: GST-tagged CHD5 (PPCC = Dual PHD + Dual Chromodomain); sheet Array Heatmap; each array performed twice, total n = 4
Procedure, shortened: as §1

MLL5 = conditions: GST-tagged MLL5; sheet Array Heatmap; each array performed twice, total n = 4
Procedure, shortened: as §1

DIDO1 = conditions: GST-tagged DIDO1; sheet Array Heatmap; each array performed twice, total n = 4
Procedure, shortened: as §1

KDM5B (1) = conditions: GST-tagged KDM5B (1); sheet Array Heatmap; each array performed twice, total n = 4
Procedure, shortened: as §1

KDM5B (3) = conditions: GST-tagged KDM5B (3); sheet Array Heatmap; each array performed twice, total n = 4
Procedure, shortened: as §1

RAG2 = conditions: GST-tagged RAG2; sheet Array Heatmap; each array performed twice, total n = 4
Procedure, shortened: as §1

SP140L = conditions: GST-tagged SP140L; sheet Array Heatmap; each array performed twice, total n = 4
Procedure, shortened: as §1

PHRF1 (RP) = conditions: GST-tagged PHRF1 (RP); sheet Array Heatmap; each array performed twice, total n = 4
Procedure, shortened: as §1

KDM5A (1) = conditions: GST-tagged KDM5A (1); sheet Array Heatmap; each array performed twice, total n = 4
Procedure, shortened: as §1

ING3 = conditions: GST-tagged ING3; sheet Array Heatmap; each array performed twice, total n = 4
Procedure, shortened: as §1

ING4 = conditions: GST-tagged ING4; sheet Array Heatmap; each array performed twice, total n = 4
Procedure, shortened: as §1

ING2 = conditions: GST-tagged ING2; sheet Array Heatmap; each array performed twice, total n = 4
Procedure, shortened: as §1

PHF13 = conditions: GST-tagged PHF13; sheet Array Heatmap; each array performed twice, total n = 4
Procedure, shortened: as §1

BAZ2B = conditions: GST-tagged BAZ2B; sheet Array Heatmap; each array performed twice, total n = 4
Procedure, shortened: as §1

DPF2 (PPC2W2) = conditions: GST-tagged DPF2 (PPC2W2 = Dual PHD + C2W2-type Zn-finger); sheet Array Heatmap; each array performed twice, total n = 4
Procedure, shortened: as §1

Substance | Array Heatmap signal (histone peptide microarray) (CHD5 (PCC)) | Array Heatmap signal (histone peptide microarray) (KDM4C (TTP)) | Array Heatmap signal (histone peptide microarray) (PHF21A) | Array Heatmap signal (histone peptide microarray) (ING1) | Array Heatmap signal (histone peptide microarray) (MORC3 (CW)) | Array Heatmap signal (histone peptide microarray) (TRIM66 (PB)) | Array Heatmap signal (histone peptide microarray) (ING5) | Array Heatmap signal (histone peptide microarray) (PHF2) | Array Heatmap signal (histone peptide microarray) (CHD4 (PPCC)) | Array Heatmap signal (histone peptide microarray) (PHF8) | Array Heatmap signal (histone peptide microarray) (TAF3) | Array Heatmap signal (histone peptide microarray) (AIRE (PP)) | Array Heatmap signal (histone peptide microarray) (KDM5A (3)) | Array Heatmap signal (histone peptide microarray) (KDM7A) | Array Heatmap signal (histone peptide microarray) (BPTF (PB)) | Array Heatmap signal (histone peptide microarray) (PHF23) | Array Heatmap signal (histone peptide microarray) (CHD5 (PPCC)) | Array Heatmap signal (histone peptide microarray) (MLL5) | Array Heatmap signal (histone peptide microarray) (DIDO1) | Array Heatmap signal (histone peptide microarray) (KDM5B (1)) | also measured
H3R2me2a + K4me3 + S10p: H3 1-20 | 0.741 | 0.4873 | 0.4392 | 0.6296 | 0.6914 | 0.5905 | 0.3497 | 0.8067 | 0.5987 | 0.5293 | 0.3453 | 0.4162 | 0.7062 | 0.3687 | 0.396 | 0.5952 | 0.5451 | 0.6475 | 0.8994 | 0.6814 | Array Heatmap signal (histone peptide microarray) (KDM5B (3)): 0.5192; Array Heatmap signal (histone peptide microarray) (RAG2): 0.4658; Array Heatmap signal (histone peptide microarray) (SP140L): 0.356; Array Heatmap signal (histone peptide microarray) (PHRF1 (RP)): 0.4776; Array Heatmap signal (histone peptide microarray) (KDM5A (1)): 0.4568; Array Heatmap signal (histone peptide microarray) (ING3): 0.4991; Array Heatmap signal (histone peptide microarray) (ING4): 0.4698; Array Heatmap signal (histone peptide microarray) (ING2): 0.6788; Array Heatmap signal (histone peptide microarray) (PHF13): 0.6271; Array Heatmap signal (histone peptide microarray) (BAZ2B): 0.4437; Array Heatmap signal (histone peptide microarray) (DPF2 (PPC2W2)): 0.7179
H3R2me2a + K4me3: H3 1-20 | 0.8429 | 0.6181 | 0.4989 | 0.5767 | 0.8119 | 0.6477 | 0.4004 | 0.6438 | 0.5963 | 0.6195 | 0.3674 | 0.4826 | 0.8444 | 0.5712 | 0.4143 | 0.6448 | 0.5913 | 0.7481 | 0.8005 | 0.7318 | Array Heatmap signal (histone peptide microarray) (KDM5B (3)): 0.6231; Array Heatmap signal (histone peptide microarray) (RAG2): 0.449; Array Heatmap signal (histone peptide microarray) (SP140L): 0.3488; Array Heatmap signal (histone peptide microarray) (PHRF1 (RP)): 0.4573; Array Heatmap signal (histone peptide microarray) (KDM5A (1)): 0.4987; Array Heatmap signal (histone peptide microarray) (ING3): 0.5638; Array Heatmap signal (histone peptide microarray) (ING4): 0.4758; Array Heatmap signal (histone peptide microarray) (ING2): 0.6869; Array Heatmap signal (histone peptide microarray) (PHF13): 0.6893; Array Heatmap signal (histone peptide microarray) (BAZ2B): 0.4862; Array Heatmap signal (histone peptide microarray) (DPF2 (PPC2W2)): 0.6763
H3R2me2a + T3p + K4me3 + K9ac + K14ac + K18ac: H3 1-20 | 0.7369 | 0.4624 | 0.4332 | 0.5919 | 0.4346 | 0.5775 | 0.3446 | 0.6236 | 0.601 | 0.377 | 0.2554 | 0.414 | 0.4737 | 0.3252 | 0.3469 | 0.5518 | 0.5374 | 0.5392 | 0.7634 | 0.6524 | Array Heatmap signal (histone peptide microarray) (KDM5B (3)): 0.4463; Array Heatmap signal (histone peptide microarray) (RAG2): 0.2569; Array Heatmap signal (histone peptide microarray) (SP140L): 0.3444; Array Heatmap signal (histone peptide microarray) (PHRF1 (RP)): 0.4697; Array Heatmap signal (histone peptide microarray) (KDM5A (1)): 0.4561; Array Heatmap signal (histone peptide microarray) (ING3): 0.4704; Array Heatmap signal (histone peptide microarray) (ING4): 0.4544; Array Heatmap signal (histone peptide microarray) (ING2): 0.6041; Array Heatmap signal (histone peptide microarray) (PHF13): 0.5933; Array Heatmap signal (histone peptide microarray) (BAZ2B): 0.4718; Array Heatmap signal (histone peptide microarray) (DPF2 (PPC2W2)): 0.7018
